Data as given in PubChem BioAssay (NCI).
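Growth conditions: 96-well plates. Treatment: test compound, 48 hours, 5 concentrations. Analysis: linear interpolation between bracketing concentrations; unreached endpoints set to highest concentration. TGI denotes the concentration required for complete inhibition of growth.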

What was measured:
Assay in all cases: DTP human tumour cell line panel, 48 h
K-562 leukemia = tested on: K-562 leukemia
NCI-H522 lung = tested on: NCI-H522 lung
HOP-62 NSCLC = tested on: HOP-62 NSCLC
UO-31 renal = tested on: UO-31 renal
A549 NSCLC = tested on: A549 NSCLC
CCRF-CEM leukemia = tested on: CCRF-CEM leukemia
OVCAR-5 ovarian = tested on: OVCAR-5 ovarian
DU-145 prostate = tested on: DU-145 prostate
CAKI-1 renal = tested on: CAKI-1 renal
RXF 393 renal = tested on: RXF 393 renal
HCT-15 colon = tested on: HCT-15 colon
HS 578T breast = tested on: HS 578T breast
MALME-3M melanoma = tested on: MALME-3M melanoma
OVCAR-8 ovarian = tested on: OVCAR-8 ovarian
SF-539 CNS = tested on: SF-539 CNS
SW-620 colon = tested on: SW-620 colon
HCC-2998 colon = tested on: HCC-2998 colon
SK-MEL-28 melanoma = tested on: SK-MEL-28 melanoma
SK-MEL-5 melanoma = tested on: SK-MEL-5 melanoma
OVCAR-3 ovarian = tested on: OVCAR-3 ovarian
786-0 renal = tested on: 786-0 renal
HCT-116 colon = tested on: HCT-116 colon
NCI-H23 lung = tested on: NCI-H23 lung
SNB-75 CNS = tested on: SNB-75 CNS
HT29 colon = tested on: HT29 colon
MOLT-4 leukemia = tested on: MOLT-4 leukemia
NCI-H226 lung = tested on: NCI-H226 lung
MDA-MB-231 breast = tested on: MDA-MB-231 breast
NCI-H460 lung = tested on: NCI-H460 lung
T-47D breast = tested on: T-47D breast
SF-268 CNS = tested on: SF-268 CNS
KM12 colon = tested on: KM12 colon
EKVX NSCLC = tested on: EKVX NSCLC
BT-549 breast = tested on: BT-549 breast
COLO 205 colon = tested on: COLO 205 colon
IGROV1 ovarian = tested on: IGROV1 ovarian
ACHN renal = tested on: ACHN renal
NCI/ADR-RES ovarian = tested on: NCI/ADR-RES ovarian
MCF7 breast = tested on: MCF7 breast
U251 CNS = tested on: U251 CNS
SK-MEL-2 melanoma = tested on: SK-MEL-2 melanoma
UACC-257 melanoma = tested on: UACC-257 melanoma
PC-3 prostate = tested on: PC-3 prostate
UACC-62 melanoma = tested on: UACC-62 melanoma
A498 renal = tested on: A498 renal
MDA-MB-435 = tested on: MDA-MB-435
HOP-92 NSCLC = tested on: HOP-92 NSCLC
OVCAR-4 ovarian = tested on: OVCAR-4 ovarian
SK-OV-3 ovarian = tested on: SK-OV-3 ovarian
M14 melanoma = tested on: M14 melanoma
RPMI-8226 leukemia = tested on: RPMI-8226 leukemia
SF-295 CNS = tested on: SF-295 CNS
TK-10 renal = tested on: TK-10 renal
LOX IMVI melanoma = tested on: LOX IMVI melanoma
SNB-19 CNS = tested on: SNB-19 CNS

SMILES: CC(C)(C)c1ccc(O)c(C(O)c2ccncc2)c1 (stereo unspecified)
- TGI (K-562 leukemia): > 100 µM
- TGI (NCI-H522 lung): > 100 µM
- TGI (HOP-62 NSCLC): > 100 µM
- TGI (UO-31 renal): > 100 µM
- TGI (A549 NSCLC): > 100 µM
- TGI (CCRF-CEM leukemia): > 100 µM
- TGI (OVCAR-5 ovarian): > 100 µM
- TGI (DU-145 prostate): > 100 µM
- TGI (CAKI-1 renal): > 100 µM
- TGI (RXF 393 renal): > 100 µM
- TGI (HCT-15 colon): > 100 µM
- TGI (HS 578T breast): > 100 µM
- TGI (MALME-3M melanoma): > 100 µM
- TGI (OVCAR-8 ovarian): > 100 µM
- TGI (SF-539 CNS): > 100 µM
- TGI (SW-620 colon): > 100 µM
- TGI (HCC-2998 colon): > 100 µM
- TGI (SK-MEL-28 melanoma): > 100 µM
- TGI (SK-MEL-5 melanoma): 66.7 µM
- TGI (OVCAR-3 ovarian): > 100 µM
- TGI (786-0 renal): > 100 µM
- TGI (HCT-116 colon): > 100 µM
- TGI (NCI-H23 lung): > 100 µM
- TGI (SNB-75 CNS): > 100 µM
- TGI (HT29 colon): > 100 µM
- TGI (MOLT-4 leukemia): > 100 µM
- TGI (NCI-H226 lung): > 100 µM
- TGI (MDA-MB-231 breast): > 100 µM
- TGI (NCI-H460 lung): > 100 µM
- TGI (T-47D breast): > 100 µM
- TGI (SF-268 CNS): > 100 µM
- TGI (KM12 colon): > 100 µM
- TGI (EKVX NSCLC): > 100 µM
- TGI (BT-549 breast): > 100 µM
- TGI (COLO 205 colon): > 100 µM
- TGI (IGROV1 ovarian): > 100 µM
- TGI (ACHN renal): > 100 µM
- TGI (NCI/ADR-RES ovarian): > 100 µM

SMILES: CN(C)C1(N(C)C)Oc2c(c(=O)n(C)c(=O)n2C)C(c2ccccc2)C1(F)F (stereo unspecified)
- TGI (MCF7 breast): > 100 µM
- TGI (U251 CNS): > 100 µM
- TGI (SK-MEL-2 melanoma): > 100 µM
- TGI (UACC-257 melanoma): > 100 µM
- TGI (K-562 leukemia): > 100 µM
- TGI (PC-3 prostate): > 100 µM
- TGI (HOP-62 NSCLC): > 100 µM
- TGI (UACC-62 melanoma): > 100 µM
- TGI (UO-31 renal): > 100 µM
- TGI (A549 NSCLC): > 100 µM
- TGI (A498 renal): > 100 µM
- TGI (MDA-MB-435): > 100 µM
- TGI (CCRF-CEM leukemia): > 100 µM
- TGI (OVCAR-5 ovarian): > 100 µM
- TGI (DU-145 prostate): > 100 µM
- TGI (CAKI-1 renal): > 100 µM
- TGI (RXF 393 renal): > 100 µM
- TGI (HCT-15 colon): > 100 µM
- TGI (SW-620 colon): > 100 µM
- TGI (HCC-2998 colon): > 100 µM
- TGI (SK-MEL-28 melanoma): > 100 µM
- TGI (SK-MEL-5 melanoma): > 100 µM
- TGI (OVCAR-3 ovarian): > 100 µM
- TGI (HOP-92 NSCLC): > 100 µM
- TGI (786-0 renal): > 100 µM
- TGI (OVCAR-4 ovarian): > 100 µM
- TGI (HCT-116 colon): > 100 µM
- TGI (SK-OV-3 ovarian): > 100 µM
- TGI (M14 melanoma): > 100 µM
- TGI (RPMI-8226 leukemia): > 100 µM
- TGI (NCI-H23 lung): > 100 µM
- TGI (SNB-75 CNS): > 100 µM
- TGI (SF-295 CNS): > 100 µM
- TGI (MOLT-4 leukemia): > 100 µM
- TGI (TK-10 renal): > 100 µM
- TGI (NCI-H226 lung): > 100 µM
- TGI (MDA-MB-231 breast): > 100 µM
- TGI (NCI-H460 lung): > 100 µM
- TGI (T-47D breast): > 100 µM
- TGI (SF-268 CNS): > 100 µM
- TGI (KM12 colon): > 100 µM
- TGI (LOX IMVI melanoma): > 100 µM
- TGI (EKVX NSCLC): > 100 µM
- TGI (SNB-19 CNS): > 100 µM
- TGI (BT-549 breast): > 100 µM
- TGI (COLO 205 colon): > 100 µM
- TGI (ACHN renal): > 100 µM
- TGI (NCI/ADR-RES ovarian): > 100 µM
